Laboratory results reported in patent US20250230193A1, “CYCLIC COMPOUND HAVING SELECTIVE KRAS INHIBITORY EFFECT ON HRAS AND NRAS” (CHUGAI SEIYAKU KABUSHIKI KAISHA, priority 2022, published 2025).

Assays:
[1] = target: GDP-bound NRAS wild-type protein (Homo sapiens, UniProt P01111); experiment: Binding to NRAS by surface plasmon resonance (SPR), Single Cycle Kinetics; settings: KD ratio, GDP-bound NRAS wild-type vs GDP-bound KRAS wild-type, SPR
[2] = target: GDP-bound HRAS wild-type protein (Homo sapiens, UniProt P01112); experiment: Binding to HRAS by surface plasmon resonance (SPR), Single Cycle Kinetics; settings: KD ratio, GDP-bound HRAS wild-type vs GDP-bound KRAS wild-type, SPR
Sequence of GDP-bound HRAS wild-type protein (P01112 whole entry): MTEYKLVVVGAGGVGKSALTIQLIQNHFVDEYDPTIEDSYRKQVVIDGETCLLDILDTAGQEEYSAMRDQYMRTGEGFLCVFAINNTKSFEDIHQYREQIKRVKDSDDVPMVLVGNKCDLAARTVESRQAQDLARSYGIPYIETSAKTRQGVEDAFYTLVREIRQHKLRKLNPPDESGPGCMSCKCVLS

Sequence of GDP-bound NRAS wild-type protein (P01111 whole entry): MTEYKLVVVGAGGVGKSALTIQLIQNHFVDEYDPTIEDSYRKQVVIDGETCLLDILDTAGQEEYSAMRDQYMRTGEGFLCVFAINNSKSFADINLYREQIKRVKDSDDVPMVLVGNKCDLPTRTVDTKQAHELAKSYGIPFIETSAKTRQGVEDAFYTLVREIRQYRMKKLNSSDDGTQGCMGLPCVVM

## CC[C@H](C)[C@@H]1NC(=O)[C@H](C2CC2)N(C)C(=O)C[C@@H](C(=O)N(C)C)N(C)C(=O)[C@H](C2CCCC2)N(C)C(=O)C2(CCC2)N(C)C(=O)[C@@H]2CCCN2C(=O)[C@H](CCc2cc(F)c(C(F)(F)F)c(F)c2)NC(=O)CN(C)C(=O)[C@H](Cc2ccc(C)cc2)N2CC/C=C\C[C@@H](C2=O)N(C)C(=O)CN(C)C1=O [PP1784]
[1]
  NRAS/KRAS (ratio of KD value for NRAS to KD value for KRAS): A (a compound having 10 or more and less than 20 is denoted as A)
[2]
  HRAS/KRAS (ratio of KD value for HRAS to KD value for KRAS): B (a compound having 3 or more and less than 10 is denoted as B)

## CCO[C@@H]1C[C@H]2C(=O)N(C)C3(CCC3)C(=O)N(C)[C@@H](C3CCCC3)C(=O)N(C)[C@H](C(=O)N(C)C)CC(=O)N(C)[C@@H](CC)C(=O)N[C@@H]([C@@H](C)CC)C(=O)N3CCC[C@H]3C(=O)N(C)[C@H]3C/C=C\CCN(C3=O)[C@@H](Cc3ccc(C)cc3)C(=O)N(C)CC(=O)N[C@@H](CCc3cc(F)c(C(F)(F)F)c(F)c3)C(=O)N2C1 [PP1785]
[1]
  NRAS/KRAS (ratio of KD value for NRAS to KD value for KRAS): A (a compound having 10 or more and less than 20 is denoted as A)
[2]
  HRAS/KRAS (ratio of KD value for HRAS to KD value for KRAS): A (a compound having 10 or more and less than 20 is denoted as A)

## CC[C@H](C)[C@@H]1NC(=O)[C@H](CC)N(C)C(=O)C[C@@H](C(=O)N(C)C)N(C)C(=O)[C@H](C2CCCC2)N(C)C(=O)C2(CCC2)N(C)C(=O)[C@@H]2CCCN2C(=O)[C@H](CCc2cc(F)c(C(F)(F)F)c(F)c2)NC(=O)CN(C)C(=O)[C@H](Cc2ccc(C)cc2)N2CC/C=C\C[C@@H](C2=O)N(C)C(=O)[C@@H]2CCCN2C1=O [PP1786]
[1]
  NRAS/KRAS (ratio of KD value for NRAS to KD value for KRAS): A (a compound having 10 or more and less than 20 is denoted as A)
[2]
  HRAS/KRAS (ratio of KD value for HRAS to KD value for KRAS): B (a compound having 3 or more and less than 10 is denoted as B)

## CC[C@H](C)[C@@H]1NC(=O)[C@H](CC)N(C)C(=O)C[C@@H](C(=O)N(C)C)N(C)C(=O)[C@H](C2CCCC2)N(C)C(=O)C2(CCC2)N(C)C(=O)[C@@H]2C[C@@H](C)CN2C(=O)[C@H](CCc2cc(F)c(C(F)(F)F)c(F)c2)NC(=O)CN(C)C(=O)[C@H](Cc2ccc(C)cc2)N2CC/C=C\C[C@@H](C2=O)N(C)C(=O)CN(C)C1=O [PP1787]
[1]
  NRAS/KRAS (ratio of KD value for NRAS to KD value for KRAS): A (a compound having 10 or more and less than 20 is denoted as A)
[2]
  HRAS/KRAS (ratio of KD value for HRAS to KD value for KRAS): B (a compound having 3 or more and less than 10 is denoted as B)

## CC[C@H](C)[C@@H]1NC(=O)[C@H](C2CC2)N(C)C(=O)C[C@@H](C(=O)N(C)C)N(C)C(=O)[C@H](C2CCCC2)N(C)C(=O)C2(CCC2)N(C)C(=O)[C@@H]2C[C@@H](C)CN2C(=O)[C@H](CCc2cc(F)c(C(F)(F)F)c(F)c2)NC(=O)CN(C)C(=O)[C@H](Cc2ccc(C)cc2)N2CC/C=C\C[C@@H](C2=O)N(C)C(=O)CN(C)C1=O [PP1788]
[1]
  NRAS/KRAS (ratio of KD value for NRAS to KD value for KRAS): B (a compound having 3 or more and less than 10 is denoted as B)
[2]
  HRAS/KRAS (ratio of KD value for HRAS to KD value for KRAS): B (a compound having 3 or more and less than 10 is denoted as B)

## CC[C@H](C)[C@@H]1NC(=O)[C@H](CC)N(C)C(=O)C[C@@H](C(=O)N(C)C)N(C)C(=O)[C@H](C2CCCC2)N(C)C(=O)C2(CCC2)N(C)C(=O)[C@@H]2C[C@@H](C)CN2C(=O)[C@H](CCc2cc(F)c(C(F)(F)F)c(F)c2)NC(=O)CN(C)C(=O)[C@H](Cc2ccc(C)cc2)N2CC/C=C\C[C@@H](C2=O)N(C)C(=O)[C@@H]2CCCN2C1=O [PP1789]
[1]
  NRAS/KRAS (ratio of KD value for NRAS to KD value for KRAS): A (a compound having 10 or more and less than 20 is denoted as A)
[2]
  HRAS/KRAS (ratio of KD value for HRAS to KD value for KRAS): A (a compound having 10 or more and less than 20 is denoted as A)

## CCO[C@@H]1C[C@H]2C(=O)N(C)C3(CCC3)C(=O)N(C)[C@@H](C3CCCC3)C(=O)N(C)[C@H](C(=O)N(C)C)CC(=O)N(C)[C@@H](CC(C)C)C(=O)N[C@@H]([C@@H](C)CC)C(=O)N(C)CC(=O)N(C)[C@H]3C/C=C\CCN(C3=O)[C@@H](Cc3ccc(C)cc3)C(=O)N(C)CC(=O)N[C@@H](CCc3cc(F)c(C(F)(F)F)c(F)c3)C(=O)N2C1 [PP1790]
[1]
  NRAS/KRAS (ratio of KD value for NRAS to KD value for KRAS): A (a compound having 10 or more and less than 20 is denoted as A)
[2]
  HRAS/KRAS (ratio of KD value for HRAS to KD value for KRAS): B (a compound having 3 or more and less than 10 is denoted as B)

## CC[C@H](C)[C@@H]1NC(=O)[C@H](CC(C)C)N(C)C(=O)C[C@@H](C(=O)N(C)C)N(C)C(=O)[C@H](C2CCCC2)N(C)C(=O)C2(CCC2)N(C)C(=O)[C@@H]2CCCN2C(=O)[C@H](CCc2cc(F)c(C(F)(F)F)c(F)c2)NC(=O)CN(C)C(=O)[C@H](Cc2ccc(C)cc2)N2CC/C=C\C[C@@H](C2=O)N(C)C(=O)CN(C)C1=O [PP1791]
[1]
  NRAS/KRAS (ratio of KD value for NRAS to KD value for KRAS): A (a compound having 10 or more and less than 20 is denoted as A)
[2]
  HRAS/KRAS (ratio of KD value for HRAS to KD value for KRAS): A (a compound having 10 or more and less than 20 is denoted as A)

## CCC[C@H]1C(=O)N[C@@H]([C@@H](C)CC)C(=O)N(C)CC(=O)N(C)[C@H]2C/C=C\CCN(C2=O)[C@@H](Cc2ccc(C)cc2)C(=O)N(C)CC(=O)N[C@@H](CCc2cc(F)c(C(F)(F)F)c(F)c2)C(=O)N2C[C@H](OCC)C[C@H]2C(=O)N(C)C2(CCC2)C(=O)N(C)[C@@H](C2CCCC2)C(=O)N(C)[C@H](C(=O)N(C)C)CC(=O)N1C [PP1793]
[1]
  NRAS/KRAS (ratio of KD value for NRAS to KD value for KRAS): A (a compound having 10 or more and less than 20 is denoted as A)
[2]
  HRAS/KRAS (ratio of KD value for HRAS to KD value for KRAS): B (a compound having 3 or more and less than 10 is denoted as B)

## CCC[C@H]1C(=O)N[C@@H]([C@@H](C)CC)C(=O)N(C)CC(=O)N(C)[C@H]2C/C=C\CCN(C2=O)[C@@H](Cc2ccc(C)cc2)C(=O)N(C)CC(=O)N[C@@H](CCc2cc(F)c(C(F)(F)F)c(F)c2)C(=O)N2CCC[C@H]2C(=O)N(C)C2(CCC2)C(=O)N(C)[C@@H](C2CCCC2)C(=O)N(C)[C@H](C(=O)N(C)C)CC(=O)N1C [PP1794]
[1]
  NRAS/KRAS (ratio of KD value for NRAS to KD value for KRAS): A (a compound having 10 or more and less than 20 is denoted as A)
[2]
  HRAS/KRAS (ratio of KD value for HRAS to KD value for KRAS): B (a compound having 3 or more and less than 10 is denoted as B)

## CCO[C@@H]1C[C@H]2C(=O)N(C)C3(CCC3)C(=O)N(C)[C@@H](C3CCCC3)C(=O)N(C)[C@H](C(=O)N(C)C)CC(=O)N(C)[C@@H](CC3CC3)C(=O)N[C@@H]([C@@H](C)CC)C(=O)N(C)CC(=O)N(C)[C@H]3C/C=C\CCN(C3=O)[C@@H](Cc3ccc(C)cc3)C(=O)N(C)CC(=O)N[C@@H](CCc3cc(F)c(C(F)(F)F)c(F)c3)C(=O)N2C1 [PP1795]
[1]
  NRAS/KRAS (ratio of KD value for NRAS to KD value for KRAS): A (a compound having 10 or more and less than 20 is denoted as A)
[2]
  HRAS/KRAS (ratio of KD value for HRAS to KD value for KRAS): B (a compound having 3 or more and less than 10 is denoted as B)

## CC[C@H](C)[C@@H]1NC(=O)[C@H](CC2CC2)N(C)C(=O)C[C@@H](C(=O)N(C)C)N(C)C(=O)[C@H](C2CCCC2)N(C)C(=O)C2(CCC2)N(C)C(=O)[C@@H]2CCCN2C(=O)[C@H](CCc2cc(F)c(C(F)(F)F)c(F)c2)NC(=O)CN(C)C(=O)[C@H](Cc2ccc(C)cc2)N2CC/C=C\C[C@@H](C2=O)N(C)C(=O)CN(C)C1=O [PP1796]
[1]
  NRAS/KRAS (ratio of KD value for NRAS to KD value for KRAS): A (a compound having 10 or more and less than 20 is denoted as A)
[2]
  HRAS/KRAS (ratio of KD value for HRAS to KD value for KRAS): B (a compound having 3 or more and less than 10 is denoted as B)
